Test results: ChEMBL document CHEMBL1141819, “Antimycobacterial triterpenes from Melia volkensii” (1999)
≈ marks a conversion by molar mass, not a printed value.

system: Mycobacterium tuberculosis; assay: Antimycobacterial activity against Mycobacterium tuberculosis H37Rv ATCC 27294 by radiorespirometric bioassay; type: functional

Row | SMILES | MIC [µg/mL]
1 | CC(C)=CCC[C@H]1C(=O)O[C@H]2C[C@]3(C)C4=CC[C@H]5C(C)(C)C(=O)CC[C@]5(C)[C@H]4C[C@@H](O)[C@@]3(C)[C@@H]21 | 16 (≈ 34.1 µM)
2 | CC(C)=CCC[C@H]1C(=O)O[C@H]2C[C@]3(C)C4=C[C@@H](O)[C@H]5C(C)(C)C(=O)CC[C@]5(C)[C@H]4CC[C@@]3(C)[C@@H]21 | 4 (≈ 8.53 µM)
3 | CC(=O)[C@H](CCC=C(C)C)[C@@H]1[C@@H](O)C[C@]2(C)C3=CC[C@H]4C(C)(C)C(=O)CC[C@]4(C)[C@H]3CC[C@@]12C [KULONATE] | 16 (≈ 34.1 µM)
